In patent US6599944B1, “Ophtalmic compound with extended dwell time on the eye” (Bausch & Lomb Incorporated, priority 1996, dated 2003):

Test system: eye of experimental rabbits
Experiment: long-term (5 weeks) eye tolerability test of preserved ophthalmic gel compositions
Format: in vivo, rabbits (Charles River)
Experimental: Long-term tests were carried out on experimental rabbits (Charles River) with the compositions of Example 1 and 2. In parallel, comparative tests were carried out with a corresponding control group in which the compositions employed were in every respect the same but differed with regard to the preservative. Instead of benzyllauryldimethylammonium chloride, on the one hand benzalkonium chloride was used in the same concentration, and on the other hand, thiomersal (standard concentration) =40 μg/g was used.

[1] = Carbopol gel, benzalkonium chloride in same concentration as Examples 1 and 2, thiomersal 40 μg/g

C[CH2][Hg][S]c1ccccc1C(=O)[O-].[Na+] [thiomersal]
damage to the tissue of the eye at the end of the test [1]: in some cases also damage to the eye | irritation in the eye at the end of the test [1]: severe irritation | rabbits showing severe irritation at the end of the test (control groups with other preservative): seven of eight
